Measurements as given in US20190247353A1, “ACNE STRAIN-SELECTIVE ANTIBACTERIAL AGENT” (MOMOTANI JUNTENKAN CO., LTD., priority 2016, published 2019).
Values after ≈ are worked out from the molar mass of the structure shown. Where two headings read alike, the source gives them in different places.

Experiments:
Type in all cases: cell-based, Propionibacterium acnes
[1] = tested on: HL053PA1 strain (RT4) and HL043PA1 strain (RT5) versus HL110PA3 strain (RT6); experiment: Strain-selective antibacterial activity (average of MICRT6/MICRT4 and MICRT6/MICRT5)
Text: Herein, “acne strain-selective antibacterial activity” or “strain-selective antibacterial activity” means an index indicating better inhibition of growth of a dominant strain in acne patients compared to that of a dominant strain in healthy subjects. It is expressed by the average value of the values (MICRT6/MICRT4, and MICRT6/MICRTS) obtained by dividing the minimum inhibitory concentration (MIC) of an object substance with respect to the dominant strain in healthy subjects (RT6 strain) (MICRT6) respectively by the MIC of the object substance with respect to the dominant strain in acne patients (RT4 strain) (MICRT4), and by the MIC of the object substance with respect to the dominant strain in acne patients (RT5 strain) (MICRT5).
The strain-selective antibacterial activity of each test substance (Table 2, right-most column) was evaluated based on the following rating criteria (Table 3). When the strain-selective antibacterial activity is indicated by a numerical range, the rating was based on the minimum value thereof.

[2] = tested on: HL053PA1 strain (RT4); experiment: MIC by broth microdilution method, HL053PA1 strain; conditions: Cutibacterium acnes, read-out: MIC against acne bacterium strain HL053PA1 strain (RT4)
Protocol: (§1) An MIC is measured herein according to the broth microdilution method which is the standard method of Japanese Society of Chemotherapy.
(§2) The antibacterial activity of a test substance was determined based on the minimum inhibitory concentration (MIC). An MIC was measured according to the broth microdilution method which is the standard method of Japanese Society of Chemotherapy.
(§3) One-loopful of each acne bacterium strain listed in Table 1 was scraped off and inoculated into 5 mL of a GAM broth slant agar medium (pH 7.0, Nissui Pharmaceutical Co., Ltd.).
The inoculated acne bacterium strain was precultured at 37° C. in a nitrogen atmosphere (anaerobic condition) for 48 hours. The precultured microbial cells were diluted in a modified GAM broth liquid medium (pH 6.0) to a concentration of 5.0×10^4 cfu/mL (viable cell count per OD660=1 is 2.0×10^9 cfu/mL), to prepare strain suspensions.
(§4) Each fatty acid (Tokyo Chemical Industry Co., Ltd.) listed in Table 2 was dissolved in dimethylsulfoxide (DMSO) as a solvent such that the concentration became 10,000 μg/mL, and used as a test substance.
(§5) Each of strain suspensions (5.0×10^4 cfu/mL) was aliquoted in a 96-well round bottom microplate, each of the test substance (fatty acid concentration 10,000 μg/mL) was added at a 1/10 volume to the aliquot and mixed to prepare measurement samples (fatty acid concentration: 1,000 μg/mL). Measurement samples in 2-fold dilution series were prepared using the strain suspension (fatty acid concentration from 0.48 to 1,000 μg/mL).
[…] The presence or absence of a precipitation of test microbial cells after the incubation was examined and the minimum concentration at which the precipitation of microbial cells […] was regarded as the MIC (μg/mL) of the test substance against the acne bacterium strain.

[3] = tested on: HL043PA1 strain (RT5); experiment: MIC by broth microdilution method, HL043PA1 strain; conditions: Cutibacterium acnes, read-out: MIC against acne bacterium strain HL043PA1 strain (RT5)
Protocol: as §1, §2, §3
The inoculated acne bacterium strain was precultured at 37° C. in a nitrogen atmosphere (anaerobic condition) for 48 hours. […]
as §4, §5
The measurement samples were incubated under an anaerobic condition at 37° C. for 2 days. The presence or absence of a precipitation of test microbial cells after the incubation was examined and the minimum concentration at which the precipitation of microbial cells […] was regarded as the MIC (μg/mL) of the test substance against the acne bacterium strain.

[4] = tested on: HL110PA3 strain (RT6); experiment: MIC by broth microdilution method, HL110PA3 strain; conditions: Cutibacterium acnes, read-out: MIC against acne bacterium strain HL110PA3 strain (RT6)
[5] = control antibiotics, Comparative Example 2, for LOD calculated using 0.48 ng/mL as MIC of the RT6 strain
[6] = control antibiotics, Comparative Example 2, method as Example 1
[7] = control antibiotics, Comparative Example 2, method as Example 1, LOD = MIC <0.48 ng/mL
[8] = control antibacterial agents, Comparative Example 1, method as Example 1

MIC [2, 6] [µg/mL]	MIC [3, 6] [µg/mL]	MIC [4, 7] [µg/mL]	SMILES	Strain-selective antibacterial activity [1, 5]	Strain-selective antibacterial activity ([1]; control antibacterial agents, Comparative Example 1)	MIC [2, 8] [µg/mL]	MIC [3, 8] [µg/mL]	MIC [4, 8] [µg/mL]
0.24 (≈ 0.525 µM)	0.49 (≈ 1.07 µM)	< 0.00048	CN(C)c1ccc(O)c2c1C[C@H]1C[C@H]3[C@H](N(C)C)C(O)=C(C(N)=O)C(=O)[C@@]3(O)C(O)=C1C2=O [Minocycline, reference compound]	<1.5 × 10^−3				
0.98 (≈ 2.21 µM)	2 (≈ 4.5 µM)	0.00048 (≈ 0.00108 µM)	C[C@H]1c2cccc(O)c2C(=O)C2=C(O)[C@]3(O)C(=O)C(C(N)=O)=C(O)[C@@H](N(C)C)[C@@H]3[C@@H](O)[C@@H]21 [Doxycycline, reference compound]	3.6 × 10^−4				
31 (≈ 72.9 µM)	63 (≈ 148 µM)	0.031 (≈ 0.0729 µM)	CCC[C@@H]1C[C@@H](C(=O)N[C@@H]([C@H]2O[C@H](SC)[C@H](O)[C@@H](O)[C@H]2O)[C@H](C)Cl)N(C)C1 [Clindamycin, reference compound]	7.5 × 10^−4				
			CCO [Ethanol, reference compound]		<0.75	> 1000	500 (≈ 10900 µM)	500 (≈ 10900 µM)
0.031 (≈ 0.086 µM)	0.031 (≈ 0.086 µM)	< 0.00048	CC1CCc2c(N3CCC(O)CC3)c(F)cc3c(=O)c(C(=O)O)cn1c23 (centres unmarked) [Nadifloxacin, reference compound]	<1.5 × 10^−2				
